Like-named read-outs stand apart in the source and are kept apart here.

Data set [1] in a line: EPR spin trapping of HO^. radicals (Fenton's method). The conditions noted are these: phosphate buffer pH=7. As to the method:
In this experiment the HO^. radicals were produced by Fenton's method in a 1.1M phosphate buffer at pH=7 in the presence of the […] system. This classical reaction for producing HO^. radicals can be expressed more simply as follows:
H2 O2 +Fe(II)→HO^. +HO-+Fe(III).
The EPR spectrum of the adduct from trapping is recorded approximately 40 s after addition of the ferrous sulphate.
(§1) The stability of these adducts makes it possible to measure the respective coupling constants of the unpaired electron with the nuclei of nitrogen (AN), of hydrogen β to the nitrogen atom (AH) and of phosphorus (AP). These values have been shown together in Table 3 which follows: […]

A short description of data set [2]: EPR spin trapping of O2^.-/HOO^. radicals (hypoxanthine/xanthine oxidase system). Particulars: for EPR detection of trapping adduct: HOO^. radicals, hypoxanthine/xanthine oxidase, 0.1M phosphate buffer. As to the method: For the production of the HOO^. radicals the hypoxanthine/xanthine oxidase system is employed in a 0.1M phosphate buffer maintained at ambient temperature. The oxygen resulting in the formation of the HOO^. radicals is that initially dissolved in the 0.1M phosphate buffer.
The hypoxanthine/xanthine oxidase system contains 0.1M of a phosphate buffer, […] of hypoxanthine, 1 mM of diethylenetriaminepentaacetic acid (DTPA), 0.4 units cm^-3 of xanthine oxidase (marketed by the company Boehringer Mannheim Biochemica Co.), and 0.1M of the nitrone being tested. The EPR spectra of the adducts from trapping are recorded approximately 40 s after the addition of xanthine oxidase.
as §1

Data set [3] is described as follows: Kinetics of decomposition (EPR) of superoxide trapping adducts (nitrone-OOH) in phosphate buffer medium. The conditions noted are these: for Half-life time: decay of nitrone-OOH adduct, 0.1M phosphate buffer pH=5.8; for order of kinetics of disappearance of the adducts: phosphate buffer pH=5.8; for adduct degradation, times less quickly than the POBN--OOH adducts: phosphate buffer, relative to POBN--OOH. The source says:
The adducts from trapping with the superoxide radical were produced using the riboflavin-DTPA (diethylenetriaminepentaacetic acid) system.
This system contains 1M of DTPA, […] of riboflavin and 0.1M of nitrone in a 0.1M phosphate buffer at pH=5.8.
This mixture is transferred into the cell of a Varian E-9 spectrometer. The cell is then irradiated to generate the superoxide radical in situ. At the end of irradiation the decrease in the adducts (nitrone-OOH) is studied using EPR analysis.

Data set [4] is described as follows: physchem. Particulars: for lipophilic/hydrophilic character: from partition coefficients, n-octanol/phosphate buffer; for logD at 1 h: n-octanol/10 mm phosphate buffer, pH 7.4. As to the method: Biol. Med. 14 (1993) 127. The partition coefficients are defined simply as the ratio of the nitrone concentration in the lipophilic phase (n-octanol) to the nitrone concentration in the aqueous phase.
Identical volumes (2 cm^3) of the octanolic nitrone solution prepared above and of a 10 mM phosphate buffer of pH=7.4 are agitated vigorously at 37° C. for 1 hour and the two phases are then separated by centrifuging (1000 g for 20 s) . The respective nitrone concentrations in each phase are then measured.

The conditions of data set [5]: for adduct degradation, times more slowly than the POBN--OOH and PBN--OOH adducts: organic medium (DMF, pyridine), relative to POBN--OOH and PBN--OOH. The text has this:
The adducts from trapping with the superoxide radical were produced using the lumiflavin-DTPA system in pyridine, or dimethylformamide. This contains […] of DTPA, […] of lumiflavin and 0.1M of nitrone in pyridine or dimethylformamide.
The operating procedure followed for the study of the decrease of the adduct from trapping is the same as above.

The conditions of data set [6]: cerebral ischaemia-reperfusion or cerebral aging; cited from earlier work.

For `CCOP(=O)(OCC)C(C)(C)[N+]([O-])=Cc1ccccc1` [Example 1, Diethyl 1-(N-benzylidene-N-oxy)amino-1-methylethyl-phosphonate], in data set [1], the “EPR detection of trapping adduct” value is on record as “formation of the adducts”. The “EPR detection of trapping adduct” value in data set [2] is on record as “formation of the adducts”. Moreover, in data set [3], the Half-life time was 5.12 min; the “order of kinetics of disappearance of the adducts” value (“order” below) is reported as “first order”; the “adduct degradation, times less quickly than the POBN--OOH adducts” value is given as “approximately 20 times”.

What is called logD is lipophilicity at a set pH, counting ionised and neutral species. In the case of `CCOP(=O)(OCC)C(C)(C)[N+]([O-])=Cc1cc[n+]([O-])cc1` [Example 2, Diethyl 1-[N-oxy-N-[4-(N'-oxypyridyl)formylene]amino]-1-methylethylphosphonate], in data set [4], the lipophilic/hydrophilic character result was “lipophilic” and the logD at 1 h was 2.29. Moreover, in data set [3], the Half-life time stood at 7.08 min; the “order” value is on record as “first order”; the “adduct degradation, times less quickly than the POBN--OOH adducts” value is “approximately 20 times”. For the same compound, in data set [5] (DMF), the Half-life time turned out to be 16.2 min and the k is recorded as 0.714 ± 0.007 10^3 s^-1. Further, the “adduct degradation, times more slowly than the POBN--OOH and PBN--OOH adducts” value in data set [5] was “approximately three”. For the same compound, in data set [5] (pyridine), the Half-life time is 21.05 min and the k is given as 0.549 ± 0.003 10^3 s^-1.

As for `CCOP(=O)(OCC)C(C)(C)[N+]([O-])=Cc1ccc(Cl)cc1` [Example 4, Diethyl 1-[[N-(4-chlorophenyl)formylene]-N-oxyamino]-1-methylethylphosphonate], in data set [4], the lipophilic/hydrophilic character result was “hydrophilic” and the logD at 1 h was -0.745. The Half-life time in data set [5] (DMF) turned out to be 15.2 min. Besides, the “adduct degradation, times more slowly than the POBN--OOH and PBN--OOH adducts” value in data set [5] is given as “approximately three”. In data set [5] (pyridine), the Half-life time stood at 20.17 min and the k is listed as 0.573 ± 0.001 10^3 s^-1.

Take `CC(C)(C)[N+]([O-])=Cc1ccccc1` [PBN, α-phenyl-tert-butylnitrone, reference compound]: the “EPR detection of trapping adduct” value in data set [1] and in data set [2] was “No signal could be detected” throughout. Besides, the “detection of the radical O2^.-” value in data set [2] (EPR spin trapping) is on record as “cannot be carried out”. Besides, the “reversal of the harmful effects of oxygen-containing free radicals” value in data set [6] is reported as “particularly effective”. The Half-life time came to 4.18 min in data set [5] (DMF) and 4.42 min in data set [5] (pyridine).

Turning to `CC(C)(C)[N+]([O-])=Cc1cc[n+]([O-])cc1` [POBN, α-(1-oxydopyridin-1-ium-4-yl)-N-tert-butylnitrone, reference compound], the Half-life time was 0.317 min in data set [3], 5.05 min in data set [5] (DMF) and 5.23 min in data set [5] (pyridine). Further, the “order” value in data set [3] is “first order”.

The values above are taken from patent US5849771A, “Phosphorylated nitrone derivatives, method for preparing same, and compositions containing said derivatives” (Centre National de la Recherche Scientifique (C.N.R.S.), priority 1995, dated 1998).
